From a melting point compilation (Tetko et al.; mined from patent text by program, amines drawn as free bases though some values may be those of a salt)

| melting point [°C] | SMILES |
| --- | --- |
| 148 to 151 | COC(=O)[C@H](Cc1ccc(NC(=O)c2c(Cl)cccc2Cl)cc1)NC(=O)OC(C)(C)C |
| 122 to 123 | O=[N+]([O-])c1cc(C(F)(F)C(F)(F)C(F)(F)/C=C/C(F)(F)C(F)(F)C(F)(F)c2ccc(O)c([N+](=O)[O-])c2)ccc1O |
| 167 to 168 | Cn1cc(C2CCC(=O)C2)c2cc(C#N)ccc21 (centres undefined) |
| 141 to 146 | CN1CCC(=C2c3ccccc3C=Cc3ccc(C#N)cc32)CC1 |
| 161 to 163 | CC(C)(NC(=O)CCn1cnc(C=O)c1)c1ccc(Cl)c(Cl)c1 |
| 78 to 80 | CCC1(c2ccc(COc3ccc(CO)c(CO)c3)s2)OCCO1 |
| 161 | CCOP(=O)(OCC)C1CCc2cc(C(F)(F)F)cc3[nH]c(=O)c(=O)n1c23 (centres undefined) |
| 161 to 162 | CCOC(=O)c1cc(=O)c2c(OCCOc3ccc4c(c3)OCO4)cccc2o1 |
| 168 to 170 | CN(C)CCC(c1ccc(C(=O)NN)cc1)c1ncc[nH]1 (centres undefined) |
| 258 | Cc1cccc2nc(Cn3cnc4c(N)ncnc43)n(-c3ccccc3C(C)C)c(=O)c12 |
| 116 to 117 | OCCc1nccn1CCCc1ccc(O)cc1 |
| 154 to 155 | Cn1cccc1-c1cc(OC(F)F)n(-c2ccc(NC(=O)c3ccncc3F)cc2)n1 |
| 111 to 112 | CCCOCC1(c2onc(-c3ccc(O)cc3)c2-c2ccccc2)CC1 |
| 120 to 122 | Cn1c(-c2cccnc2)cc(=O)n(C)c1=O |
| 165 to 167 | COc1ccc(N(C(C)=O)C2=NN(c3ccc([N+](=O)[O-])cc3)C(=O)C2)cc1 |
| 73.5 | CCCCc1nc(-c2nc(C)nc(C)n2)ccc1C |
| 127 to 128 | COC1(OC)SC(c2nccs2)=C(C)NC1=O |
| 130 | OCCCc1cn(C(c2ccccc2)(c2ccccc2)c2ccccc2)cn1 |
| 151 | O=C(Nc1ccc(N2CCOCC2=O)cc1)[C@H]1C[C@@H](O)CN1C(=O)/C=C/c1ccc(Cl)s1 |
| 89 | COCCN(CCOC)C(=O)c1ccc([N+](=O)[O-])cc1[N+](=O)[O-] |
| 155 to 157 | Cc1ccc(OCC(=O)c2cc(C(C)(C)C)c(O)c(C(C)(C)C)c2)c(-n2nc3ccccc3n2)c1 |
| 36 to 38 | CC(=O)c1ccc(C2=CCCCCC2)cc1 |
| 49 to 50 | NCCCCCC(N)=O |
| 95 to 97 | COC(=O)c1nc(-c2ccc(CF)cc2)cc(N)c1Cl |

| melting point [°C] | SMILES |
| --- | --- |
| 120 to 121 | OC1=Cc2ccccc2C=Cc2ccccc21 |
| 119 to 120 | CCOC(=O)Cc1nsc(NC(=O)c2ccccc2)n1 |
| 159 to 162 | CN1CCC(c2c[nH]c3ccc(NC(=O)c4ccc(F)cc4Cl)cc23)CC1 |
| 155 to 156 | COc1cc(NN)c(F)cc1C#N |
| 158 to 160 | O=C(Nc1cccc(O)c1)C(=O)N1CCC(Cc2ccccc2)CC1 |
| 158 to 160 | CN(C)c1ccc(CNc2ccc(C(F)(F)F)cc2[N+](=O)[O-])cc1 |
| 102 | O=C1CCN(C(=O)c2cc(C(F)(F)F)cc(C(F)(F)F)c2)C(Cc2ccccc2)C1 (centres undefined) |
| 112 to 115 | Cc1cc(C)c(Nc2nc(C)ncc2S(=O)(=O)c2cccc(OCc3ccccc3)c2)c(C)c1 |
| 148 to 150 | COC(=O)CC1CCc2cc(C(=O)c3ccccc3)c(O)cc21 (centres undefined) |
| 227 to 228 | O=C(O)C=Cc1cn(-c2ccccc2)nc1-c1ccc(Cl)cc1 |
| 199 | Cc1cccc(N2CCOCC2)c1NC(N)=S |
| 170 | CCOC(=O)C1(C(=O)O)CN(C2CC2)c2nc3cc(N4CC(N)C4C)c(F)cc3cc2C1=O (centres undefined) |
| 95 to 99 | CNC(=O)[C@H](Cc1ccccc1)NC(=O)[C@H](CC(C)C)N[C@H](CCN(C(=O)OCc1ccccc1)C(=O)OCc1ccccc1)C(=O)OC(C)(C)C |
| 130 to 131 | CNC(=C[N+](=O)[O-])NCCOc1cccc(CN(C)C)c1 |
| 247 to 250 | CCC(=O)N1CCN(c2n[nH]c3ncnc(Nc4cccc(Cl)c4)c23)CC1 |
| 109 | CC(=O)c1c(C)nc2ccccc2c1NCc1cccc(Br)c1 |
| 35 | CC(=O)SCCc1ccc(C=O)cc1 |
| 162 to 163 | O=C(O)CN1CCN2c3ccccc3Cc3ccccc3C2C1 (centres undefined) |
| 94 to 95 | CC(C)(C)OC(=O)c1ccc(NC#N)cc1 |
| 100 to 103 | O=C(Oc1ccccc1)n1c(C(F)(F)F)nc2c([N+](=O)[O-])cc(C(F)(F)F)cc21 |
| 241 to 242 | CCCOc1cc(S(C)(=O)=O)ccc1-c1ccc(C#N)c(=O)[nH]1 |
| 293 to 295 | O=c1[nH]c2ncc(-c3ccc(-c4ncc[nH]4)cc3)nc2n1CCC1CCOCC1 |
| 143 to 144 | Cc1c(O)ccc(Cl)c1N |
| 142 to 143 | O=C(Cn1cnc(-c2ccc(OCc3ccccc3)cc2)n1)c1ccc(F)cc1F |

| melting point [°C] | SMILES |
| --- | --- |
| 130 to 132 | CC(C)c1cc(C(C)C)c(C(F)C(=O)c2ccc(C(C)C)c(OS(N)(=O)=O)c2C(C)C)c(C(C)C)c1 (centres undefined) |
| 181 to 184 | [N-]=[N+]=NCC(=O)Nc1ccc(S(=O)(=O)c2ccc(F)cc2)cc1 |
| 258 to 260 | COc1ccc(-c2oc(C(=O)O)cc(=O)c2O)cc1 |
| 117 to 118 | CC(=O)c1ccc(Oc2ccc(-c3scc(-c4ccccc4Cl)c3CC(=O)N=C(N)N)cc2)cc1 |
| 281 | O=C1Nc2ccc(Cl)cc2C1(c1ccccc1)c1ccccc1 |
| 236 to 239 | O=C(O)c1ccc(C(=O)O)c(OC(F)(F)C(F)OC(F)(F)C(F)(OC(F)(F)C(F)(F)C(F)(F)F)C(F)(F)F)c1 (centres undefined) |
| 164 to 167 | COc1ccc2c(c1)CC(C(=O)O)N2C(C)=O (centres undefined) |
| 244 to 246 | COc1cc2ccc3c4cc(OCc5ccccc5)c(OC)cc4nnc3c2cc1OC |
| 79 to 81 | CCC(=S)N1CCSC1=Nc1ccccc1C(C)C |
| 165 | Cc1ccc(C(O)(c2ccc3c(c2)c(-c2cccc(Cl)c2)nc2nnnn23)c2cncn2C)cc1 (centres undefined) |
| 139 to 140 | CC(=O)N1C(=O)C(C(=O)c2cccs2)c2ccccc21 (centres undefined) |
| 298 to 302 | Cc1cc(C)cc(-c2cc3cnc(N)nc3nc2N)c1 |
| 157 to 158 | FC(F)(F)c1ccc(/C=C/c2nc(COc3ccc(CCCn4ccnn4)cc3)co2)cc1 |
| 110 to 111 | COCN(c1cccc2cc(-c3ncnn3C)n(COC)c12)S(=O)(=O)c1cccs1 |
| 212 to 213 | CCN1CCN(c2ccnc(-c3nc(=O)c4ccccc4s3)c2)C1=O |
| 160 | Cc1cc(-n2ccnc2)c2cccc(OCc3c(Cl)ccc(S(=O)(=O)N4CC[C@H]4C(=O)O)c3Cl)c2n1 |
| 248 to 250 | COc1cc(OC)cc(Oc2nc(N)n3nc(-c4ccco4)nc3n2)c1 |
| 126 to 128 | C=C(CN1c2ccccc2Sc2ccc(Cl)cc21)c1ccc(C(=O)Nc2ccccc2N)cc1 |
| 155 to 156 | CCc1cccc(CC(=O)O)c1OCCCc1cn(-c2ccc(C(F)(F)F)cn2)nc1C(C)C |
| 122 to 123 | Nc1ccc(C(O)c2ccc(Cl)cn2)cc1 (centres undefined) |
| 157 to 158 | CCc1cc(CCCOc2c(C)cc(-c3noc(C(F)(F)F)n3)cc2C)on1 |
| 104 to 106 | COc1cc(C(=CC#N)c2ccc(OC)c(OC)c2)ccc1N |
| 156 to 158 | COc1cc2c(cc1OC)C(C=Cc1ccc(Br)cc1)=NN=C(C)C2 |
| 86 to 87 | C[C@@H](CSc1nc2ccccc2cc1-c1ccccc1)NC(=O)OC(C)(C)C |

| melting point [°C] | SMILES |
| --- | --- |
| 115 | CN(C)Cc1ccc(CSCCNC(=NC(=O)CNN2C(=O)c3ccccc3C2=O)N(C)N=Cc2ccccc2)o1 |
| 74 to 75 | CC(Oc1ccccc1)C(=O)NCCO[N+](=O)[O-] (centres undefined) |
| 169 to 172 | CC(C)c1ccc2c(c1)c(S(=O)(=O)c1ccccc1)c(CC(C)(C)C(=O)O)n2Cc1ccc(Cl)cc1 |
| 145 to 150 | O=C(O)c1cc2cc(Cl)ccc2nc1N[C@@H](Cc1ccc(Oc2ccc(Br)cn2)cc1)C(=O)O |
| 58 to 60 | CC(=O)N=NCc1ccc(OCCCCCOc2ccc(C(=O)N(c3ccccc3)C(C)C)c(Cl)c2)cc1 |
| 156 to 158 | NCCNC(=O)Nc1ccc2[nH]ccc2c1 |
| 166 to 167 | CN1CCC(Oc2c(F)cc3c(=O)c(C(=O)O)cn(C4CC4)c3c2F)CC1 |
| 98 to 102 | Cc1c(-c2ccc(O)cc2)n(Cc2ccc(OCCN3CCCCCCC3)cc2)c2ccc(O)cc12 |
| 126 to 129 | CCOC(=S)c1c(COC)nc2cc(F)c(F)cc2c1O |
| 130 to 133 | Cc1ccc(C(=O)N(C)C)cc1-c1nc(NCCNC(C)C)nc2c1CNC(=O)N2c1c(F)cccc1F |
| 121 | c1cc(Cn2ccnc2)c2nccnc2c1 |
| 182 to 183 | COc1cc(OC)c(-c2nc(C)no2)cc1C=O |
| 62 | BrCCOc1cccc2c1SCCC2 |
| 230 | C#CC1(O)CCc2c(O)c3c(c(O)c2C1)C(=O)c1ccccc1C3=O (centres undefined) |
| 177 to 179 | Ic1nc(-c2ccccn2)[nH]c1I |
| 155 to 156 | C=C(C(=O)OC)C(O)c1c(C)n(C(=O)OC(C)(C)C)c2ccc(C)c(O)c12 (centres undefined) |
| 192 to 193 | COc1cc(N)c(Cl)cc1C(=O)NC1CC2CCCCN2C1 (centres undefined) |
| 88 to 89 | CCOC(=O)c1ccc2occ(-c3ccc(SC)cc3)c2n1 |
| 130 to 132 | O=Cc1cc(C(F)(F)F)ccc1Sc1ccccc1F |
| > 210 | CCCC#Cc1ccnc2[nH]cc(-c3ccnc(N)n3)c12 |
| 59 to 61 | CC=C(CC)c1nc(C)nc2c1c(C)c(C)n2-c1c(C)cc(C)cc1C |
| 46.5 to 50 | COC(=O)c1cccc(S(=O)(=O)Cl)c1C |
| 77 to 78 | C[C@@H](Cn1ncc2ccc3c(c21)C[C@@H](OCC(=O)OC(C)(C)C)CO3)N=[N+]=[N-] |
| 52 to 56 | CCCCCCCCSCN1CN(CSCCCCCCCC)c2cccc3cccc1c23 |

| SMILES | melting point [°C] |
| --- | --- |
| CN1CC(CCC#N)Oc2ncccc2C1=S (centres undefined) | 155 to 156 |
| COC(=O)c1ccc(CC(C)NCC(O)c2ccc(O)c(NS(C)(=O)=O)c2)cc1 (centres undefined) | 133 to 140 |
| COc1ccc2c3c1O[C@H]1C[C@@H](O)C=C[C@@]31CCN(CCN1CCOCC1)C2 | 101 to 104 |
